In one series the test system is EAE mice. Nature of the series: Experimental allergic encephalomyelitis (EAE), MOG35-55/CFA immunized mice. The class given is in vivo, C57BL/6J mice. The note with it: for Number of dead mice during 49 days: n=7; for Score on day 18 / Score on day 29 / Score on day 37: EAE scale 0-6; for EAE score on the initial day: scale 0-6.
Another series concerns keratinocytes. The series can be described thus: Cytokine secretion in LPS, TNFα or IL-17 activated keratinocytes treated with peptide PKCα inhibitors (ELISA). The class given is cell-based, BALB/C mice. To be noted: for cytokine secretion in keratinocytes: stimulated by LPS, TNFα, or IL-17, medium collected after 48 hr. The protocol:
To determine their effects, keratinocytes were derived from newborn BALB/C mice skin. The cells were incubated for 5 days in 24 wells plate. Cells were then incubated with PBS −/− as control or stimulated by LPS, TNFα, or IL-17. PKCα inhibitors were added as indicated. Medium containing secreted cytokines was collected after 48 hr and analyzed using ELISA. FIG. 50 is a tabular summary of cytokine secretion.

Series [1] relates to C57BL mice. The series can be described thus: Incision wounds treated 7 days, histological analysis (Example 9). The class given is in vivo. Here is the method: Wounds were performed on the back of 8-10 week old C57BL mice by incision and were treated daily for 7 days with either vehicle (PBS) control or with 1 μM insulin (Humulin, Eli Lilly, USA) or a mixture of 1 μM insulin combined with 1 μM of the PKCα inhibitor of SEQ ID NO: 6. Seven days after wounding all mice were sacrificed and treated wounds were histologically analyzed for proliferative capacity of the epidermis (proliferating cell nuclear antigen-PCNA), angiogenesis, inflammation, epidermal cells and the remodeling processes at the wound gap.

Series [2] deals with STZ-induced diabetic C57BL/6J mice. The series can be described thus: Wound healing in STZ-induced diabetic mice. The class given is in vivo. The protocol:
Full thickness skin incisions (20 mm) were performed on the upper back of anesthetized streptozocin (STZ)-injected (175 mg/kg body weight) diabetic, citrate buffer injected (6 mice/group) non-diabetic, and non-injected (6 mice/group), C57BL/6J mice. Periodical blood glucose monitoring was performed by measuring glucose levels from tail vein after STZ injection. […] Following incision, STZ-induced diabetic wounds were treated daily by application of PBS (7/6 mice/group), insulin (0.1 units/ml) (6 mice/group), the PKCa inhibitor of SEQ ID NO:6 (1 μg/ml) (7/5 mice/group) or a formulation (herein designated HO/03/03) containing insulin and the N-myristoylated PKCα inhibitor of SEQ ID NO: 6 (7/6 mice/group) directly to the surgical dressing. Biopsies were collected 9 days post-wounding. Wounds were excised from euthanized animals for evaluation of wound-healing parameters by histology and immunohistochemistry.
Wounds were assessed for epidermal closure by Keratin 14 staining. Wounds were considered closed when complete epidermal staining was observed across the wound gap. Dermal contraction was considered when both dermal edges were visible in a fixed field ×100 magnification utilizing H&E staining. Epidermal differentiation was assessed by Keratin 1 staining.
The organization of hypodermis was assessed by the presence (or absence) of hypodermis at both wound edges. Granulation tissue formation was assessed by the presence of fibroblasts and collagen fibers in the wound bed. The wound was considered positive for granulation tissue formation when a continuous layer of granulation tissue was present in the wound gap. In addition, we have defined 3 specific histological parameters characterizing severe inflammation of diabetic wounds: (i) abscess formation at the wounded area, (ii) excessive leukocytosis (>100 cells in a fixed field (×200)) and (iii) high white blood cells (WBC)/red blood cells (RBC) ratio within the blood vessels shown in a fixed field (×200). When at least 2 of these parameters are present at the wound gap, the wound is considered severely inflamed.

Series [3] relates to C57BL mice. Nature of the series: Incision wounds treated 7 days, severe inflammation incidence (Example 10). The class given is in vivo. To be noted: 1 μM daily for 7 days. Here is the method: Wounds were performed on the back of C57BL mice by incision and were treated daily for 7 days with: (i) PBS, control; (ii) 1 μM of the PKCα inhibitor of SEQ ID NO: 6; (iii) 1 μM insulin (Humulin, Eli Lilly, USA); or (iv) a mixture of 1 μM PKCα inhibitor and 1 μM insulin.

Setting [4] is: individual wounds, 1 μM daily for 7 days, listed as Insulin only.
Setting [5] is: 9-days post wounding, percent of wounds in group, insulin 0.1 units, HO/02 1 ug/ml.
The mark [6] stands for this setting: 9-days post wounding, percent of wounds in group, insulin 0.1 units, SEQ ID NO: 6 1 ug/ml.

Where “and” joins values, the source holds several entries; their conditions need not be identical. Equal entries are not always repeated. Entries after “also recorded” stand apart in the source; their conditions may differ. The star is where a group is joined. Palmitoyl = CCCCCCCCCCCCCCCC(=O)*; Myristoyl = CCCCCCCCCCCCCC(=O)*

Regarding CRAMP [reference compound], in the series on EAE mice (0.2 mg/kg), the “The initial day (of illness signs)” value was 10 days, the “Score on day 18” value is 3.214, the “Score on day 29” value came to 2.000 and the “Score on day 37” value was found to be 2.571. For the same substance, the “EAE score on the initial day” value with EAE mice (0.2 mg/kg) is 0.571. Also, the “Number of dead mice during 49 days” value in the series on EAE mice (0.2 mg/kg i.p. three times a week) was 2. Further, in the series on EAE mice (2 mg/kg), the “The initial day (of illness signs)” value is 11 days, the “Score on day 18” value came out at 2.643, the “Score on day 29” value stood at 2.643 and the “Score on day 37” value is listed as 2.143. In addition, in the series on EAE mice (2 mg/kg), the “EAE score on the initial day” value turned out to be 0.143. The “Number of dead mice during 49 days” value with EAE mice (2 mg/kg i.p. three times a week) is 2.
In the case of “H-Phe-Ala-Arg-Lys-Gly-Ala-Leu-Arg-Gln-OH (H-FARKGALRQ-OH) [AWOT-1]”, in the series with keratinocytes, the “cytokine secretion in keratinocytes” value is reported as “effective in decreasing cytokine secretion”.
For the substance “H-Phe-Ala-Arg-Lys-Gly-Ala-Leu-Arg-Gln-OH-acetate salt (H-FARKGALRQ-OH; also: acetate salt) [PDY-1]”, in the series on keratinocytes, the “cytokine secretion from IL-17A activated keratinocytes” value is listed as “decrease cytokine secretion”; the “cytokine secretion from LPS and TNFα activated keratinocytes” value was “decrease cytokine secretion”.
As to “H-Thr-Leu-Asn-Pro-Gln-Trp-Glu-Ser-OH (H-TLNPQWES-OH) [AIP-1]”, the “cytokine secretion in keratinocytes” value with keratinocytes is “effective in decreasing cytokine secretion”.
In the case of “Insulin: insulin (Humulin, Eli Lilly, USA)”, in the series with C57BL mice [1] (1 μM daily for 7 days), the “adverse side effects at the wound” value was “increased inflammation, hyperplasia of epidermal cells, delayed differentiation of the spinous layer of epidermal cells and increased scarring”. Further, the “incidence of abnormal angiogenesis in the wound area” value in the series with C57BL mice [1] (1 μM daily for 7 days, PBS control 25%) is on record as 60%. In the series with C57BL mice [1] (group average, N = 5, 1 μM daily for 7 days), the “Proliferative capacity of the epidermis (layers of basal cells, PCNA), average” value was “average 6.4”. For the same substance, in the series on C57BL mice [1] (setting [4]), the Angiogenesis result is on record as “high abnormal; also recorded: normal”; the “Proliferative capacity of the epidermis (layers of basal cells, PCNA)” value is 8 (2×) and 6 and 5 (2×). In series [2] (setting [5]), the “Dermal closure (H&E)” value came out at 0%, the “Epidermal closure (K14)” value is listed as 17% and the “Epidermal differentiation (Kl)” value stood at 0%. In series [2] (setting [6]), this substance came in with a Granulation tissue of 40%, a Hypodermis of 10% and a Severe inflammation of 100%. Further, in series [2] (9 days post-wounding), the “overall healing effect in diabetic wounds” value is reported as “only partial healing effects”. Further, the “anti-inflammatory effect on wounds” value in the series with C57BL mice [3] was “no anti-inflammatory effect”. The “Incidence of severe inflammation in wound (%)” value with C57BL mice [3] (PBS control 60) stood at 56%.
Regarding “Myristoyl-Phe-Ala-Arg-Lys-Gly-Ala-Leu-OH (Myristoyl-FARKGAL-OH; SMILES CCCCCCCCCCCCCC(=O)N[C@@H](Cc1ccccc1)C(=O)N[C@@H](C)C(=O)N[C@@H](CCCNC(=N)N)C(=O)N[C@@H](CCCCN)C(=O)NCC(=O)N[C@@H](C)C(=O)N[C@@H](CC(C)C)C(=O)O) [MPDY-1 sh]”, in the series with keratinocytes, the “cytokine secretion from IL-17A activated keratinocytes” value is listed as “decrease cytokine secretion”; the “cytokine secretion from LPS and TNFα activated keratinocytes” value is listed as “decrease cytokine secretion”.
For “Myristoyl-Phe-Ala-Arg-Lys-Gly-Ala-Leu-OH-trifluoracetate salt (Myristoyl-FARKGAL-OH; also: trifluoroacetate salt) [AIP-2]”, in the series with keratinocytes, the “cytokine secretion in keratinocytes” value is on record as “effective in decreasing cytokine secretion”.
With “Myristoyl-Thru-Arg-Lys-Arg-Gln-Arg-Ala-Met-Arg-Arg-Arg-Val-His-Gln-Ile-Asn-Gly-OH (Myristoyl-TRKRQRAMRRRVHQING-OH; SMILES CCCCCCCCCCCCCC(=O)N[C@H](C(=O)N[C@@H](CCCNC(=N)N)C(=O)N[C@@H](CCCCN)C(=O)N[C@@H](CCCNC(=N)N)C(=O)N[C@@H](CCC(N)=O)C(=O)N[C@@H](CCCNC(=N)N)C(=O)N[C@@H](C)C(=O)N[C@@H](CCSC)C(=O)N[C@@H](CCCNC(=N)N)C(=O)N[C@@H](CCCNC(=N)N)C(=O)N[C@@H](CCCNC(=N)N)C(=O)N[C@H](C(=O)N[C@@H](Cc1c[nH]cn1)C(=O)N[C@@H](CCC(N)=O)C(=O)N[C@H](C(=O)N[C@@H](CC(N)=O)C(=O)NCC(=O)O)[C@@H](C)CC)C(C)C)[C@@H](C)O) [MPE-1]”, in the series with EAE mice (0.1 mg/kg), the “The initial day (of illness signs)” value was 11 days, the “Score on day 18” value is 2.857, the “Score on day 29” value was 1.929 and the “Score on day 37” value was 1.429. Also, the “EAE score on the initial day” value in the series with EAE mice (0.1 mg/kg) amounted to 0.429. Also, the “EAE severity / score compared to control group” value in the series on EAE mice (0.1 mg/kg (0.1 μg/ml)) is reported as “reduced EAE severity”. In the series with EAE mice (1 mg/kg), the “The initial day (of illness signs)” value was found to be 10 days, the “Score on day 18” value is listed as 3.071, the “Score on day 29” value is reported as 4.286 and the “Score on day 37” value was 4.286. For the same substance, the “EAE score on the initial day” value with EAE mice (1 mg/kg) came to 0.429. Besides, the “Number of dead mice during 49 days” value with EAE mice (1 mg/kg i.p. three times a week) is reported as 4. For the same substance, in the series with EAE mice (concentration of 0.1 μg/ml, control group score 2.86), the “average group score at the end of the experiment (day 42)” value was found to be 2.00.
Regarding “Palmitoyl-Phe-Ala-Arg-Lys-Gly-Ala-Leu-Arg-Gln-OH-acetate salt (Palmitoyl-FARKGALRQ-OH; also: acetate salt) [PPDY-1]”, the “cytokine secretion in keratinocytes” value in the series on keratinocytes is “effective in decreasing cytokine secretion”.
